Results from PubChem BioAssay (NCI).
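Abbreviation: GI50, concentration required for 50% inhibition of growth. TGI marks complete inhibition of growth.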

How the values were obtained:
Experiment in all cases: NCI tumour cell line growth inhibition, 384-well format
[1] = tested on: SNB-75 CNS
[2] = tested on: HCT-116 colon
[3] = tested on: HOP-62 NSCLC
[4] = tested on: SR leukemia
[5] = tested on: M14 melanoma
[6] = tested on: DU-145 prostate
[7] = tested on: RPMI-8226 leukemia
[8] = tested on: HOP-92 NSCLC
[9] = tested on: TK-10 renal
[10] = tested on: SK-OV-3 ovarian
[11] = tested on: EKVX NSCLC
[12] = tested on: T-47D breast
[13] = tested on: SF-268 CNS
[14] = tested on: MDA-MB-468 breast
[15] = tested on: SNB-19 CNS
[16] = tested on: MDA-MB-435 melanoma
[17] = tested on: UACC-62 melanoma
[18] = tested on: BT-549 breast
[19] = tested on: NCI-H460 NSCLC
[20] = tested on: SF-295 CNS
[21] = tested on: OVCAR-4 ovarian
[22] = tested on: NCI-H322M lung
[23] = tested on: A498 renal
[24] = tested on: MOLT-4 leukemia
[25] = tested on: IGROV1 ovarian
[26] = tested on: KM12 colon
[27] = tested on: HT29 colon
[28] = tested on: MDA-MB-231 breast
[29] = tested on: NCI-H226 lung
[30] = tested on: CAKI-1 renal
[31] = tested on: NCI-H23 lung
[32] = tested on: HS 578T breast
[33] = tested on: HCC-2998 colon
[34] = tested on: SF-539 CNS
[35] = tested on: COLO 205 colon
[36] = tested on: UACC-257 melanoma
[37] = tested on: PC-3 prostate
[38] = tested on: ACHN renal
[39] = tested on: U251 glioblastoma
[40] = tested on: LOX IMVI melanoma
[41] = tested on: HCT-15 colon
[42] = tested on: OVCAR-5 ovarian
[43] = tested on: MALME-3M melanoma
[44] = tested on: SK-MEL-5 melanoma
[45] = tested on: HL-60(TB) leukemia
[46] = tested on: MCF7 breast
[47] = tested on: OVCAR-8 ovarian
[48] = tested on: NCI/ADR-RES ovarian
[49] = tested on: SN12C renal
[50] = tested on: NCI-H522 lung
[51] = tested on: RXF 393 renal
[52] = tested on: OVCAR-3 ovarian
[53] = tested on: A549 NSCLC
[54] = tested on: SK-MEL-28 melanoma
[55] = tested on: UO-31 renal
[56] = tested on: SW-620 colon
[57] = tested on: SK-MEL-2 melanoma
[58] = tested on: 786-0 renal
[59] = tested on: K-562 leukemia

Structure (SMILES): CC(C)C[C@H](NC(=O)[C@@H](NC(=O)c1cccc(-c2ccccc2)n1)[C@@H](C)O)B(O)O
- GI50 [1]: 297 nM
- TGI [1]: 1260 nM
- GI50 [2]: 160 nM
- TGI [2]: 347 nM
- GI50 [3]: 237 nM
- TGI [3]: 765 nM
- TGI [4]: 221 nM
- GI50 [5]: 163 nM
- TGI [5]: 305 nM
- GI50 [6]: 432 nM
- TGI [6]: 1760 nM
- GI50 [7]: 11.2 nM
- TGI [7]: 26 nM
- GI50 [8]: 432 nM
- TGI [8]: 1890 nM
- GI50 [9]: 157 nM
- TGI [9]: 418 nM
- GI50 [10]: 560 nM
- TGI [10]: 11000 nM
- GI50 [11]: 523 nM
- TGI [11]: 2850 nM
- GI50 [12]: 224 nM
- TGI [12]: 783 nM
- GI50 [13]: 266 nM
- TGI [13]: 787 nM
- GI50 [14]: 168 nM
- TGI [14]: 405 nM
- GI50 [15]: 234 nM
- TGI [15]: 870 nM
- GI50 [16]: 163 nM
- TGI [16]: 305 nM
- GI50 [17]: 291 nM
- TGI [17]: 1160 nM
- GI50 [18]: 139 nM
- TGI [18]: 288 nM
- GI50 [19]: 426 nM
- TGI [19]: 1550 nM
- GI50 [20]: 374 nM
- TGI [20]: 1540 nM
- GI50 [21]: 210 nM
- TGI [21]: 569 nM
- GI50 [22]: 2030 nM
- TGI [22]: 11800 nM
- GI50 [23]: 312 nM
- TGI [23]: 1850 nM
- GI50 [24]: 21.8 nM
- TGI [24]: 56.4 nM
- GI50 [25]: 560 nM
- TGI [25]: 2120 nM
- GI50 [26]: 346 nM
- TGI [26]: 1280 nM
- GI50 [27]: 127 nM
- TGI [27]: 274 nM
- GI50 [28]: 327 nM
- TGI [28]: 1280 nM
- GI50 [29]: 11.4 nM
- TGI [29]: 103 nM
- GI50 [30]: 492 nM
- TGI [30]: 19000 nM
- GI50 [31]: 292 nM
- TGI [31]: 1190 nM
- GI50 [32]: 143 nM
- TGI [32]: 294 nM
- GI50 [33]: 141 nM
- TGI [33]: 371 nM
- GI50 [34]: 165 nM
- TGI [34]: 308 nM
- GI50 [35]: 442 nM
- TGI [35]: > 100000 nM
- GI50 [36]: 116 nM
- TGI [36]: 245 nM
- GI50 [37]: 257 nM
- TGI [37]: 685 nM
- GI50 [38]: 239 nM
- TGI [38]: 957 nM
- GI50 [39]: 420 nM
- TGI [39]: 1940 nM
- GI50 [40]: 216 nM
- TGI [40]: 507 nM
- GI50 [41]: 556 nM
- TGI [41]: 1880 nM
- GI50 [42]: 260 nM
- TGI [42]: 940 nM
- GI50 [43]: 104 nM
- TGI [43]: 239 nM
- GI50 [44]: 129 nM
- TGI [44]: 285 nM
- GI50 [45]: 77.6 nM
- TGI [45]: 198 nM
- GI50 [46]: 129 nM
- TGI [46]: 10700 nM
- GI50 [47]: 374 nM
- TGI [47]: 1520 nM
- GI50 [48]: 11100 nM
- TGI [48]: 24500 nM
- GI50 [49]: 123 nM
- TGI [49]: 422 nM
- GI50 [50]: 122 nM
- TGI [50]: 249 nM
- GI50 [51]: 147 nM
- TGI [51]: 297 nM
- GI50 [52]: 103 nM
- TGI [52]: 228 nM
- GI50 [53]: 1080 nM
- TGI [53]: 16300 nM
- GI50 [54]: 89.1 nM
- TGI [54]: 240 nM

Structure (SMILES): C[C@@H](COCCC(=O)N1CCN(c2ncc(C(F)(F)F)cn2)CC1)Nc1cn[nH]c(=O)c1C(F)(F)F
- GI50 [1]: 12400 nM
- TGI [1]: > 100000 nM
- GI50 [2]: 8640 nM
- TGI [2]: > 100000 nM
- GI50 [3]: 4010 nM
- TGI [3]: 22500 nM
- GI50 [4]: 1310 nM
- TGI [4]: 2670 nM
- GI50 [5]: 46800 nM
- TGI [5]: > 100000 nM
- GI50 [6]: 12700 nM
- TGI [6]: > 100000 nM
- GI50 [8]: 41200 nM
- TGI [8]: > 100000 nM
- GI50 [9]: > 100000 nM
- TGI [9]: > 100000 nM
- GI50 [10]: 13900 nM
- TGI [10]: 79800 nM
- GI50 [11]: 63600 nM
- TGI [11]: > 100000 nM
- GI50 [12]: 24200 nM
- TGI [12]: > 100000 nM
- GI50 [13]: 10100 nM
- TGI [13]: 73100 nM
- GI50 [14]: 3720 nM
- TGI [14]: 23500 nM
- GI50 [55]: 22400 nM
- TGI [55]: > 100000 nM
- GI50 [15]: 48000 nM
- TGI [15]: > 100000 nM
- GI50 [16]: > 100000 nM
- TGI [16]: > 100000 nM
- GI50 [17]: 32300 nM
- TGI [17]: > 100000 nM
- GI50 [19]: 16100 nM
- TGI [19]: > 100000 nM
- GI50 [20]: 6190 nM
- TGI [20]: 33900 nM
- GI50 [21]: > 100000 nM
- TGI [21]: > 100000 nM
- GI50 [22]: > 100000 nM
- TGI [22]: > 100000 nM
- GI50 [23]: > 100000 nM
- TGI [23]: > 100000 nM
- GI50 [24]: 1530 nM
- TGI [24]: 2970 nM
- GI50 [25]: 69100 nM
- TGI [25]: > 100000 nM
- GI50 [26]: 3660 nM
- TGI [26]: 82700 nM
- GI50 [56]: 187 nM
- TGI [56]: > 100000 nM
- GI50 [27]: > 100000 nM
- TGI [27]: > 100000 nM
- GI50 [28]: > 100000 nM
- TGI [28]: > 100000 nM
- GI50 [29]: 18600 nM
- TGI [29]: > 100000 nM
- GI50 [30]: 25700 nM
- TGI [30]: > 100000 nM
- GI50 [31]: 9260 nM
- TGI [31]: 52100 nM
- GI50 [32]: 1090 nM
- TGI [32]: > 100000 nM
- GI50 [57]: > 100000 nM
- TGI [57]: > 100000 nM
- GI50 [34]: 3280 nM
- TGI [34]: 27400 nM
- GI50 [35]: > 100000 nM
- TGI [35]: > 100000 nM
- GI50 [36]: 60400 nM
- TGI [36]: > 100000 nM
- GI50 [37]: 62500 nM
- TGI [37]: > 100000 nM
- GI50 [38]: 24000 nM
- TGI [38]: > 100000 nM
- GI50 [39]: 11600 nM
- TGI [39]: 73700 nM
- GI50 [41]: 77900 nM
- TGI [41]: > 100000 nM
- GI50 [42]: > 100000 nM
- TGI [42]: > 100000 nM
- GI50 [43]: > 100000 nM
- TGI [43]: > 100000 nM
- GI50 [44]: 48500 nM
- TGI [44]: > 100000 nM
- GI50 [45]: 2490 nM
- TGI [45]: 16000 nM
- GI50 [46]: 14500 nM
- TGI [46]: > 100000 nM
- GI50 [47]: 14700 nM
- TGI [47]: > 100000 nM
- GI50 [58]: 41500 nM
- TGI [58]: > 100000 nM
- GI50 [49]: 5170 nM
- TGI [49]: 51900 nM
- GI50 [50]: 31800 nM
- TGI [50]: > 100000 nM
- TGI [51]: 20300 nM
- GI50 [52]: 35500 nM
- TGI [52]: > 100000 nM
- GI50 [53]: 41000 nM
- TGI [53]: > 100000 nM
- GI50 [59]: 10000 nM
- TGI [59]: > 100000 nM
- GI50 [54]: > 100000 nM
- TGI [54]: > 100000 nM
